# Results taken from PubChem BioAssay AID248 (DTP/NCI, 2004).
# Where “and” joins values, the source holds several entries; their conditions need not be identical. Identical values can stand only once. Toxic doses and inconclusive results are not listed.
# System: L1210 leukemia ip in BDF1 mice, survival T/C
# Assay: NCI In Vivo Anticancer Drug Screen. Data for tumor model L1210 Leukemia (intraperitoneal) in B6D2F1 (BDF1) mice
# Conditions: endpoint: mean survival time, higher = longer survival
# How it was run: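 Ratio derived from survival: compound-dosed mice over vehicle-dosed mice, all bearing a transplantable tumor.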
smiles,measurement,setting,value
NC(CSC(c1ccccc1)(c1ccccc1)c1ccccc1)C(=O)O (stereo not given),T/C,"dose: 1.0 mg/kg/injection, schedule: Q01DX Z (ip), vehicle: carboxymethylcellulose (CMC)",97 % of control and 102 % of control
same,T/C,"dose: 1.0 mg/kg/injection, schedule: Q01DX Z (ip), vehicle: other",109 % of control
same,T/C,"dose: 1.0 mg/kg/injection, schedule: Q01DX Z (ip), vehicle: saline",109 % of control
same,T/C,"dose: 1.95 mg/kg/injection, schedule: Q03HX006 (iv), vehicle: clinical formulation",106 % of control
same,T/C,"dose: 3.9 mg/kg/injection, schedule: Q03HX006 (iv), vehicle: clinical formulation",101 % of control
same,T/C,"dose: 4.0 mg/kg/injection, schedule: Q03HX024 (oral), vehicle: water",107 % of control
same,T/C,"dose: 4.1 mg/kg/injection, schedule: Q03HX024 (ip), vehicle: clinical formulation",107 % of control
same,T/C,"dose: 4.1 mg/kg/injection, schedule: Q03HX024 (ip), vehicle: saline",114 % of control
same,T/C,"dose: 4.1 mg/kg/injection, schedule: Q03HX024 (ip), vehicle: water",111 % of control
same,T/C,"dose: 4.4 mg/kg/injection, schedule: Q03HX024 (ip), vehicle: water",106 % of control
same,T/C,"dose: 5.0 mg/kg/injection, schedule: Q01DX Z (ip), vehicle: carboxymethylcellulose (CMC)",108 % of control and 123 % of control
same,T/C,"dose: 5.0 mg/kg/injection, schedule: Q01DX Z (ip), vehicle: other",115 % of control
same,T/C,"dose: 5.0 mg/kg/injection, schedule: Q01DX Z (ip), vehicle: saline",117 % of control
same,T/C,"dose: 5.4 mg/kg/injection, schedule: Q03HX024 (ip), vehicle: saline",111 % of control
same,T/C,"dose: 6.0 mg/kg/injection, schedule: Q03HX024 (oral), vehicle: water",118 % of control
same,T/C,"dose: 6.25 mg/kg/injection, schedule: Q01DX015 (oral), vehicle: saline",108 % of control
same,T/C,"dose: 6.25 mg/kg/injection, schedule: Q01DX015 (sc), vehicle: saline",105 % of control
same,T/C,"dose: 6.6 mg/kg/injection, schedule: Q03HX024 (ip), vehicle: water",124 % of control
same,T/C,"dose: 7.2 mg/kg/injection, schedule: Q03HX024 (ip), vehicle: clinical formulation",124 % of control
same,T/C,"dose: 7.81 mg/kg/injection, schedule: Q03HX006 (iv), vehicle: clinical formulation",103 % of control
same,T/C,"dose: 7.81 mg/kg/injection, schedule: Q03HX012 (ip), vehicle: clinical formulation",108 % of control
same,T/C,"dose: 7.81 mg/kg/injection, schedule: Q03HX012 (ip), vehicle: water",121 % of control
same,T/C,"dose: 8.75 mg/kg/injection, schedule: Q03HX008 (ip), vehicle: other",113 % of control
same,T/C,"dose: 9.0 mg/kg/injection, schedule: Q03HX024 (oral), vehicle: clinical formulation",105 % of control
same,T/C,"dose: 9.0 mg/kg/injection, schedule: Q03HX024 (oral), vehicle: saline",105 % of control
same,T/C,"dose: 9.0 mg/kg/injection, schedule: Q03HX024 (oral), vehicle: water",115 % of control
same,T/C,"dose: 10.0 mg/kg/injection, schedule: Q01DX Z (ip), vehicle: carboxymethylcellulose (CMC)",119 % of control
same,T/C,"dose: 12.5 mg/kg/injection, schedule: Q01DX009 (ip), vehicle: clinical formulation",116 % of control
same,T/C,"dose: 12.5 mg/kg/injection, schedule: Q01DX009 (ip), vehicle: other",123 % of control
same,T/C,"dose: 12.5 mg/kg/injection, schedule: Q01DX009 (ip), vehicle: water",116 % of control
same,T/C,"dose: 12.5 mg/kg/injection, schedule: Q01DX015 (ip), vehicle: saline",151 % of control
same,T/C,"dose: 12.5 mg/kg/injection, schedule: Q01DX015 (oral), vehicle: saline",114 % of control
same,T/C,"dose: 12.75 mg/kg/injection, schedule: Q03HX024 (ip), vehicle: water",119 % of control
same,T/C,"dose: 14.0 mg/kg/injection, schedule: Q03HX024 (oral), vehicle: clinical formulation",122 % of control
same,T/C,"dose: 15.62 mg/kg/injection, schedule: Q03HX006 (iv), vehicle: clinical formulation",103 % of control
same,T/C,"dose: 15.62 mg/kg/injection, schedule: Q03HX012 (ip), vehicle: water",152 % of control
same,T/C,"dose: 16.87 mg/kg/injection, schedule: Q03HX024 (ip), vehicle: other",151 % of control
same,T/C,"dose: 17.0 mg/kg/injection, schedule: Q01DX009 (ip), vehicle: other",109 % of control
same,T/C,"dose: 17.5 mg/kg/injection, schedule: Q01DX005 (ip), vehicle: other",114 % of control
same,T/C,"dose: 17.5 mg/kg/injection, schedule: Q01DX009 (ip), vehicle: other",113 % of control
same,T/C,"dose: 17.5 mg/kg/injection, schedule: Q## X006 (ip), vehicle: other",116 % of control
same,T/C,"dose: 22.5 mg/kg/injection, schedule: Q03HX024 (ip), vehicle: water",92 % of control
same,T/C,"dose: 25.0 mg/kg/injection, schedule: Q01DX009 (ip), vehicle: clinical formulation",117 % of control
same,T/C,"dose: 25.0 mg/kg/injection, schedule: Q01DX009 (ip), vehicle: other",119 % of control
same,T/C,"dose: 25.0 mg/kg/injection, schedule: Q01DX009 (ip), vehicle: water",110 % of control
same,T/C,"dose: 27.0 mg/kg/injection, schedule: Q03HX024 (oral), vehicle: clinical formulation",152 % of control
same,T/C,"dose: 31.25 mg/kg/injection, schedule: Q03HX006 (iv), vehicle: clinical formulation",116 % of control
same,T/C,"dose: 31.25 mg/kg/injection, schedule: Q03HX012 (ip), vehicle: clinical formulation",118 % of control
same,T/C,"dose: 31.25 mg/kg/injection, schedule: Q03HX012 (ip), vehicle: water",118 % of control
same,T/C,"dose: 35.0 mg/kg/injection, schedule: Q03HX008 (ip), vehicle: other",122 % of control
same,T/C,"dose: 35.0 mg/kg/injection, schedule: Q03HX024 (ip), vehicle: other",107 % of control
same,T/C,"dose: 35.0 mg/kg/injection, schedule: Q04DX003 (ip), vehicle: clinical formulation",96 % of control
same,T/C,"dose: 35.0 mg/kg/injection, schedule: Q04DX003 (ip), vehicle: other",113 % of control
same,T/C,"dose: 35.0 mg/kg/injection, schedule: Q## X006 (ip), vehicle: other",124 % of control
same,T/C,"dose: 35.5 mg/kg/injection, schedule: Q01DX009 (ip), vehicle: other",107 % of control
same,T/C,"dose: 47.0 mg/kg/injection, schedule: Q04DX003 (ip), vehicle: other",119 % of control
same,T/C,"dose: 48.0 mg/kg/injection, schedule: Q03HX024 (oral), vehicle: clinical formulation",106 % of control
same,T/C,"dose: 50.0 mg/kg/injection, schedule: Q01DX009 (oral), vehicle: other",123 % of control
same,T/C,"dose: 50.0 mg/kg/injection, schedule: Q01DX Z (ip), vehicle: carboxymethylcellulose (CMC)",102 % of control
same,T/C,"dose: 52.8 mg/kg/injection, schedule: Q03HX024 (ip), vehicle: clinical formulation",105 % of control
same,T/C,"dose: 52.8 mg/kg/injection, schedule: Q04DX003 (ip), vehicle: clinical formulation",95 % of control and 105 % of control
same,T/C,"dose: 70.0 mg/kg/injection, schedule: Q01DX001 (ip), vehicle: other",121 % of control
same,T/C,"dose: 70.0 mg/kg/injection, schedule: Q03HX008 (ip), vehicle: other",101 % of control
same,T/C,"dose: 70.0 mg/kg/injection, schedule: Q04DX003 (ip), vehicle: clinical formulation",107 % of control
same,T/C,"dose: 70.0 mg/kg/injection, schedule: Q## X006 (ip), vehicle: other",121 % of control
same,T/C,"dose: 78.0 mg/kg/injection, schedule: Q02DX005 (ip), vehicle: other",152 % of control
same,T/C,"dose: 78.0 mg/kg/injection, schedule: Q04DX003 (ip), vehicle: other",114 % of control
same,T/C,"dose: 78.0 mg/kg/injection, schedule: Q08DX002 (ip), vehicle: other",110 % of control
same,T/C,"dose: 80.0 mg/kg/injection, schedule: Q03HX024 (ip), vehicle: clinical formulation",115 % of control
same,T/C,"dose: 80.0 mg/kg/injection, schedule: Q04DX003 (ip), vehicle: clinical formulation",94 % of control and 108 % of control
same,T/C,"dose: 100.0 mg/kg/injection, schedule: Q01DX009 (ip), vehicle: saline with Tween-80",108 % of control
same,T/C,"dose: 100.0 mg/kg/injection, schedule: Q01DX009 (oral), vehicle: other",118 % of control
same,T/C,"dose: 100.0 mg/kg/injection, schedule: Q01DX Z (ip), vehicle: other",115 % of control
same,T/C,"dose: 100.0 mg/kg/injection, schedule: Q01DX Z (ip), vehicle: saline",150 % of control
same,T/C,"dose: 100.0 mg/kg/injection, schedule: Q02DX005 (oral), vehicle: other",121 % of control
same,T/C,"dose: 112.0 mg/kg/injection, schedule: Q03HX024 (oral), vehicle: clinical formulation",96 % of control
same,T/C,"dose: 112.0 mg/kg/injection, schedule: Q03HX024 (oral), vehicle: saline",103 % of control
same,T/C,"dose: 112.0 mg/kg/injection, schedule: Q04DX003 (ip), vehicle: clinical formulation",122 % of control
same,T/C,"dose: 125.0 mg/kg/injection, schedule: Q02DX009 (ip), vehicle: other",97 % of control
same,T/C,"dose: 130.0 mg/kg/injection, schedule: Q08DX002 (ip), vehicle: other",124 % of control
same,T/C,"dose: 140.0 mg/kg/injection, schedule: Q01DX001 (ip), vehicle: other",118 % of control
same,T/C,"dose: 150.0 mg/kg/injection, schedule: Q01DX Z (ip), vehicle: saline",109 % of control
same,T/C,"dose: 160.0 mg/kg/injection, schedule: Q03HX024 (ip), vehicle: saline",110 % of control
same,T/C,"dose: 240.0 mg/kg/injection, schedule: Q03HX024 (ip), vehicle: saline",92 % of control
same,T/C,"dose: 250.0 mg/kg/injection, schedule: Q02DX009 (ip), vehicle: other",103 % of control
same,T/C,"dose: 250.0 mg/kg/injection, schedule: Q02DX009 (oral), vehicle: other",121 % of control
same,T/C,"dose: 250.0 mg/kg/injection, schedule: Q04DX005 (oral), vehicle: other",121 % of control
same,T/C,"dose: 250.0 mg/kg/injection, schedule: Q08DX003 (oral), vehicle: other",111 % of control
same,T/C,"dose: 280.0 mg/kg/injection, schedule: Q01DX001 (ip), vehicle: other",107 % of control
same,T/C,"dose: 280.0 mg/kg/injection, schedule: Q04DX003 (ip), vehicle: saline",107 % of control
same,T/C,"dose: 400.0 mg/kg/injection, schedule: Q01DX009 (oral), vehicle: other",120 % of control
same,T/C,"dose: 500.0 mg/kg/injection, schedule: Q08DX003 (oral), vehicle: other",124 % of control
same,T/C,"dose: 800.0 mg/kg/injection, schedule: Q08DX002 (oral), vehicle: other",113 % of control
same,T/C,"dose: 1000.0 mg/kg/injection, schedule: Q02DX009 (oral), vehicle: other",112 % of control
same,T/C,"dose: 2000.0 mg/kg/injection, schedule: Q08DX003 (oral), vehicle: other",151 % of control
